# Data published in PubChem BioAssay (NCI).
#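 Each compound was tested at five concentrations against cells in 96-well plates for 48 hours. TGI: total growth inhibition.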
# Columns and labels:
# Assay in all cases: growth of human tumour cells (NCI), 48 h
# 786-0 renal = system: 786-0 renal
# A498 renal = system: A498 renal
# A549 NSCLC = system: A549 NSCLC
# ACHN renal = system: ACHN renal
# BT-549 breast = system: BT-549 breast
# CAKI-1 renal = system: CAKI-1 renal
# COLO 205 colon = system: COLO 205 colon
# DU-145 prostate = system: DU-145 prostate
# EKVX NSCLC = system: EKVX NSCLC
# HCC-2998 colon = system: HCC-2998 colon
# HCT-116 colon = system: HCT-116 colon
# HCT-15 colon = system: HCT-15 colon
# HL-60(TB) leukemia = system: HL-60(TB) leukemia
# HOP-62 NSCLC = system: HOP-62 NSCLC
# HOP-92 NSCLC = system: HOP-92 NSCLC
# HS 578T breast = system: HS 578T breast
# HT29 colon = system: HT29 colon
# IGROV1 ovarian = system: IGROV1 ovarian
# K-562 leukemia = system: K-562 leukemia
# KM12 colon = system: KM12 colon
# LOX IMVI melanoma = system: LOX IMVI melanoma
# M14 melanoma = system: M14 melanoma
# MALME-3M melanoma = system: MALME-3M melanoma
# MCF7 breast = system: MCF7 breast
# MDA-MB-231 breast = system: MDA-MB-231 breast
# MDA-MB-435 = system: MDA-MB-435
# MDA-N = system: MDA-N
# MOLT-4 leukemia = system: MOLT-4 leukemia
# NCI-H226 lung = system: NCI-H226 lung
# NCI-H23 lung = system: NCI-H23 lung
# NCI-H460 lung = system: NCI-H460 lung
# NCI-H522 lung = system: NCI-H522 lung
# NCI/ADR-RES ovarian = system: NCI/ADR-RES ovarian
# OVCAR-3 ovarian = system: OVCAR-3 ovarian
# OVCAR-4 ovarian = system: OVCAR-4 ovarian
# OVCAR-5 ovarian = system: OVCAR-5 ovarian
# OVCAR-8 ovarian = system: OVCAR-8 ovarian
# PC-3 prostate = system: PC-3 prostate
# RPMI-8226 leukemia = system: RPMI-8226 leukemia
# RXF 393 renal = system: RXF 393 renal
# SF-268 CNS = system: SF-268 CNS
# SF-295 CNS = system: SF-295 CNS
# SF-539 CNS = system: SF-539 CNS
# SK-MEL-2 melanoma = system: SK-MEL-2 melanoma
# SK-MEL-28 melanoma = system: SK-MEL-28 melanoma
# SK-MEL-5 melanoma = system: SK-MEL-5 melanoma
# SK-OV-3 ovarian = system: SK-OV-3 ovarian
# SN12C renal = system: SN12C renal
# SNB-19 CNS = system: SNB-19 CNS
# SNB-75 CNS = system: SNB-75 CNS
# SR leukemia = system: SR leukemia
# SW-620 colon = system: SW-620 colon
# T-47D breast = system: T-47D breast
# TK-10 renal = system: TK-10 renal
# U251 CNS = system: U251 CNS
# UACC-257 melanoma = system: UACC-257 melanoma
# UACC-62 melanoma = system: UACC-62 melanoma
# UO-31 renal = system: UO-31 renal
# CCRF-CEM leukemia = system: CCRF-CEM leukemia
structure (smiles),measurement,setting,value
CCOC(=O)C(NC(=O)c1ccccc1)(Nc1ccc(Cl)cc1C(F)(F)F)C(F)(F)F (stereo not drawn),TGI,786-0 renal,> 100 µM
same,TGI,A498 renal,47.1 µM
same,TGI,A549 NSCLC,> 100 µM
same,TGI,ACHN renal,27.4 µM
same,TGI,BT-549 breast,32.4 µM
same,TGI,CAKI-1 renal,> 55.7 µM
same,TGI,COLO 205 colon,19.2 µM
same,TGI,DU-145 prostate,> 100 µM
same,TGI,EKVX NSCLC,> 100 µM
same,TGI,HCC-2998 colon,> 79.4 µM
same,TGI,HCT-116 colon,> 84.5 µM
same,TGI,HCT-15 colon,> 50.9 µM
same,TGI,HL-60(TB) leukemia,5.04 µM
same,TGI,HOP-62 NSCLC,31.8 µM
same,TGI,HOP-92 NSCLC,50.7 µM
same,TGI,HS 578T breast,> 100 µM
same,TGI,HT29 colon,6.53 µM
same,TGI,IGROV1 ovarian,> 64.7 µM
same,TGI,K-562 leukemia,> 26.7 µM
same,TGI,KM12 colon,5.17 µM
same,TGI,LOX IMVI melanoma,> 100 µM
same,TGI,M14 melanoma,28 µM
same,TGI,MALME-3M melanoma,22.1 µM
same,TGI,MCF7 breast,> 100 µM
same,TGI,MDA-MB-231 breast,77.2 µM
same,TGI,MDA-MB-435,3.24 µM
same,TGI,MDA-N,3.69 µM
same,TGI,MOLT-4 leukemia,> 22.2 µM
same,TGI,NCI-H226 lung,> 100 µM
same,TGI,NCI-H23 lung,> 78 µM
same,TGI,NCI-H460 lung,> 52.3 µM
same,TGI,NCI-H522 lung,7.29 µM
same,TGI,NCI/ADR-RES ovarian,10.6 µM
same,TGI,OVCAR-3 ovarian,18.7 µM
same,TGI,OVCAR-4 ovarian,> 100 µM
same,TGI,OVCAR-5 ovarian,> 100 µM
same,TGI,OVCAR-8 ovarian,> 100 µM
same,TGI,PC-3 prostate,29.2 µM
same,TGI,RPMI-8226 leukemia,> 100 µM
same,TGI,RXF 393 renal,24.7 µM
same,TGI,SF-268 CNS,> 100 µM
same,TGI,SF-295 CNS,> 69.8 µM
same,TGI,SF-539 CNS,> 88.6 µM
same,TGI,SK-MEL-2 melanoma,> 45.1 µM
same,TGI,SK-MEL-28 melanoma,> 100 µM
same,TGI,SK-MEL-5 melanoma,> 37.5 µM
same,TGI,SK-OV-3 ovarian,> 100 µM
same,TGI,SN12C renal,> 44.2 µM
same,TGI,SNB-19 CNS,> 100 µM
same,TGI,SNB-75 CNS,15.1 µM
same,TGI,SR leukemia,> 24 µM
same,TGI,SW-620 colon,17.2 µM
same,TGI,T-47D breast,> 45.6 µM
same,TGI,TK-10 renal,> 100 µM
same,TGI,U251 CNS,19 µM
same,TGI,UACC-257 melanoma,> 100 µM
same,TGI,UACC-62 melanoma,27.4 µM
same,TGI,UO-31 renal,> 100 µM
CCOC(=O)c1[nH]cc(C)c1-c1ccc2c(-c3ccccc3)nc3ccccc3n12,TGI,786-0 renal,12.8 µM
same,TGI,A498 renal,9.98 µM
same,TGI,A549 NSCLC,18.5 µM
same,TGI,ACHN renal,15.5 µM
same,TGI,BT-549 breast,17.4 µM
same,TGI,CAKI-1 renal,17.8 µM
same,TGI,CCRF-CEM leukemia,13 µM
same,TGI,COLO 205 colon,14.2 µM
same,TGI,DU-145 prostate,13.4 µM
same,TGI,EKVX NSCLC,18.2 µM
same,TGI,HCC-2998 colon,9.97 µM
same,TGI,HCT-116 colon,12.5 µM
same,TGI,HCT-15 colon,13.7 µM
same,TGI,HOP-62 NSCLC,29.9 µM
same,TGI,HOP-92 NSCLC,14 µM
same,TGI,HS 578T breast,6.5 µM
same,TGI,HT29 colon,11.9 µM
same,TGI,IGROV1 ovarian,16.1 µM
same,TGI,K-562 leukemia,9.13 µM
same,TGI,KM12 colon,13.3 µM
same,TGI,LOX IMVI melanoma,12.3 µM
same,TGI,M14 melanoma,27.5 µM
same,TGI,MCF7 breast,14.3 µM
same,TGI,MDA-MB-231 breast,12.8 µM
same,TGI,MDA-MB-435,11.2 µM
same,TGI,MDA-N,14.1 µM
same,TGI,MOLT-4 leukemia,9.25 µM
same,TGI,NCI-H226 lung,20.1 µM
same,TGI,NCI-H23 lung,23.3 µM
same,TGI,NCI-H460 lung,12 µM
same,TGI,NCI-H522 lung,4.79 µM
same,TGI,NCI/ADR-RES ovarian,10.3 µM
same,TGI,OVCAR-3 ovarian,18.5 µM
same,TGI,OVCAR-4 ovarian,16.1 µM
same,TGI,OVCAR-5 ovarian,64.5 µM
same,TGI,OVCAR-8 ovarian,16.7 µM
same,TGI,PC-3 prostate,12.8 µM
same,TGI,RXF 393 renal,7.22 µM
same,TGI,SF-268 CNS,17.1 µM
same,TGI,SF-295 CNS,13.6 µM
same,TGI,SF-539 CNS,9.04 µM
same,TGI,SK-MEL-2 melanoma,16.8 µM
same,TGI,SK-MEL-28 melanoma,14.3 µM
same,TGI,SK-MEL-5 melanoma,6.29 µM
same,TGI,SK-OV-3 ovarian,23.5 µM
same,TGI,SN12C renal,15.2 µM
same,TGI,SNB-75 CNS,5.87 µM
same,TGI,SR leukemia,5.34 µM
same,TGI,SW-620 colon,16.5 µM
same,TGI,T-47D breast,18.4 µM
same,TGI,TK-10 renal,15.2 µM
same,TGI,U251 CNS,11.8 µM
same,TGI,UACC-257 melanoma,24.7 µM
same,TGI,UACC-62 melanoma,10.8 µM
same,TGI,UO-31 renal,14.5 µM
